In patent US5075335A, “Guanidinobenzoic ester derivative” (Eisai Co., Ltd., priority 1985, dated 1991):

How the values were obtained:
Format in all cases: biochemical
thrombin = thrombin (Homo sapiens, UniProt P00734); test: Thrombin inhibition in vitro (substrate H-D-Phe-L-pipecolyl-L-Arg-p-nitroanilide dihydrochloride); details: read-out: 50% Inhibitory concentration (IC50) Thrombin
Description: (§1) The effects of typical compounds of the present invention in inhibiting trypsin, plasmin and thrombin in vitro were examined. The trypsin-inhibiting effect was represented in terms of a molar concentration of the compound which inhibits the activity of 0.5 μg/ml of trypsin to hydrolyze benzoyl-D,L-arginine-p-nitroanilide hydrochloride by 50% at 25° C. In the determination of the plasmin- and thrombin-inhibiting effects, 50% inhibitory concentrations were determined by using H-D-Val-Leu-L-Lys-p-nitroanilide dihydrochloride and H-D-Phe-L-pipecolyl-L-Arg-p-nitroanilide dihydrochloride, respectively, as the substrate.

plasmin = plasmin (Homo sapiens, UniProt P00747); test: Plasmin inhibition in vitro (substrate H-D-Val-Leu-L-Lys-p-nitroanilide dihydrochloride); details: read-out: 50% Inhibitory concentration (IC50) Plasmin
plasmin, sequence (P00747 581-810 limits assumed, species assumed): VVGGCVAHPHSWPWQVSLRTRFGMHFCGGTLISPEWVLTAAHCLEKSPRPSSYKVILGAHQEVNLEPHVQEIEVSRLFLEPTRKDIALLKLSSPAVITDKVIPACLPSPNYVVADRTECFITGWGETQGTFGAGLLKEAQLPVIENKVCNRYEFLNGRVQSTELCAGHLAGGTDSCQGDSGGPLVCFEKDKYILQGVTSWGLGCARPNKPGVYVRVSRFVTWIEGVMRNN
plasmin, sequence (P00747 97-580 partner limits assumed, species assumed): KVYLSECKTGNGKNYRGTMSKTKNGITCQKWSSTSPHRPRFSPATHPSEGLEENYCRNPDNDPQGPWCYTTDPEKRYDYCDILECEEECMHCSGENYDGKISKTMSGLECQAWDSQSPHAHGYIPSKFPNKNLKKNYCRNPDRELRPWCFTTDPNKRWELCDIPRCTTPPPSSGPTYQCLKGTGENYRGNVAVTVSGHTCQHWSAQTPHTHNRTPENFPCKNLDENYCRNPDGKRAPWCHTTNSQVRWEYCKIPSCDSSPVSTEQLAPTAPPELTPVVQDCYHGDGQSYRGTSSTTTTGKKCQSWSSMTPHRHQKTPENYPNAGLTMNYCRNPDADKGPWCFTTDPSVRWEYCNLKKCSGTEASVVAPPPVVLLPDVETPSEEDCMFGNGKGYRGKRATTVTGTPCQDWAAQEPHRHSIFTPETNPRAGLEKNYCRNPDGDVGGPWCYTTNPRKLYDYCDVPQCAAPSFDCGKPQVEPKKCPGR
Description: as §1

trypsin = test: Trypsin inhibition in vitro (hydrolysis of benzoyl-D,L-arginine-p-nitroanilide hydrochloride); details: 0.5 μg/ml of trypsin, 25° C, read-out: 50% Inhibitory concentration (IC50) Trypsin
Description: as §1

IC50 (thrombin)	IC50 (plasmin)	IC50 (trypsin)	Structure (SMILES)
250 nM	1300 nM	43 nM	N=C(N)Nc1ccc(C(=O)Oc2ccc(SCCO)cc2)cc1 [A, 4-(2-hydroxyethylthio)phenyl 4-guanidinobenzoate methanesulfonate]
270 nM	640 nM	34 nM	N=C(N)Nc1ccc(C(=O)Oc2ccc(SCCCCCN3C(=O)CCC3=O)cc2)cc1 [F, 4-(5-succinimidopentylthio)phenyl 4-guanidinobenzoate methanesulfonate]
570 nM	2300 nM	22 nM	N=C(N)Nc1ccc(C(=O)Oc2ccc(SCCCCN3C(=O)CCC3=O)cc2)cc1 [E, 4-(4-succinimidobutylthio)phenyl 4-guanidinobenzoate methanesulfonate]
160 nM	1000 nM	62 nM	N=C(N)Nc1ccc(C(=O)Oc2ccc(SCCN3C(=O)[C@H]4CCCC[C@H]4C3=O)cc2)cc1 [G, 4-[2-(cis-1,2-cyclohexanedicarboxyimido)-ethylthio]phenyl 4-guanidinobenzoate methanesulfonate]
320 nM	830 nM	55 nM	CC1(C)OC(=O)N(CCSc2ccc(OC(=O)c3ccc(NC(=N)N)cc3)cc2)C1=O [I, 4-[2-(5,5-dimethyl-2,4-dioxooxazolidin-3-yl)ethylthio]phenyl 4-guanidinobenzoate methanesulfonate]
350 nM	2200 nM	45 nM	CCOCCSc1ccc(OC(=O)c2ccc(NC(=N)N)cc2)cc1 [C, 4-(2-ethoxyethylthio)phenyl 4-guanidinobenzoate methanesulfonate]
530 nM	950 nM	47 nM	N=C(N)Nc1ccc(C(=O)Oc2ccc(SCCN3C(=O)CCC3=O)cc2)cc1 [B, 4-(2-succinimidoethylthio)phenyl 4-guanidinobenzoate methanesulfonate]
110 nM	920 nM	30 nM	N=C(N)Nc1ccc(C(=O)Oc2ccc(SCCN3C(=O)c4ccccc4C3=O)cc2)cc1 [H, 4-(2-phthalimidoethylthio)phenyl 4-guanidinobenzoate methanesulfonate]
420 nM	1300 nM	59 nM	N=C(N)Nc1ccc(C(=O)Oc2ccc(SCCCN3C(=O)CCC3=O)cc2)cc1 [D, 4-(3-succinimidopropylthio)phenyl 4-guanidinobenzoate methanesulfonate]
